# From patent CN106581687A, “以乳清蛋白为基质的桃柁酚抗菌纳米水凝胶及其制备方法” (Jilin University, priority 2016, dated 2017)
# Test system: Staphylococcus aureus (金黄色葡萄球菌), S.aureus strains ATCC 29213
# Assay: 最小抑菌浓度MIC (minimum inhibitory concentration of totarol)
# Format: cell-based
# Details: value used for loading in the Example concerned
structure (smiles),measurement,setting,value
"CC(C)c1c(O)ccc2c1CC[C@H]1C(C)(C)CCC[C@]21C [桃柁酚, 桃柁酚(Totarol)]",MIC,"Staphylococcus aureus, ATCC29213, totarol against Staphylococcus aureus",2 µg/mL
same,minimum inhibitory concentration (MIC value),totarol against Staphylococcus aureus,4 µg/mL
